Test results published in patent US11986462B2, “Use of tacrolimus in preparation of medicament for initiating tissue regeneration function” (priority 2020, dated 2024).

Experiments:
[1] = system: distal caudal fin tissue of a zebrafish; assay: Tissue regeneration experiment of distal caudal fin of zebrafish (wound model); format: in vivo; settings: 3 μM tacrolimus in culture solution, adult zebrafish, 1, 3 and 5 days after amputation, vs DMSO control
Procedure: 1. Experimental fish lines and culturing method are as follows: a wild-type (AB) fish was used as an experimental fish, stored in a flowing water tank at 28±0.5° C. with a pH=7±0.5, a conductivity of an aquaculture water was […]; and a photoperiod was 14 h of lighting and 10 h of darkness. Fresh sandworms were fed three times a day. Raising was conducted in accordance with the guidelines of the Ministry of Science and Technology of the People's Republic of China on the cultivation of experimental animals (2006); all fishes were kept under standard laboratory conditions. 2. Wound model construction is as follows: an adult zebrafish was lightly anesthetized in an anesthetic supplemented with tricaine and placed in a 1.5 g/100 mL agarose tank. A tissue with a length of 2-3 joints and a width of two fin rays on caudal fin surface was excavated using a scalpel blade; a hole was exposed on the caudal fin surface to form a damaged tissue containing a proximal wound and a distal wound. Proximal regenerative tissues were daily removed to prevent the hole from being filled. A regeneration status of the caudal fin was imaged and recorded using a Zeiss Discovery […] microscope (Carl Zeiss, Germany). 3. […]

calcineurin = assay: Determination of calcineurin activity in caudal fin tissues (malachite green, RII peptide substrate); format: in vivo, zebrafish; settings: 3 μM tacrolimus in culture solution, vs DMSO control group non-regenerative tissues
Procedure: 4. […] Free phosphate in the sample was removed, the phosphorylated RII peptide was added, and the sample was incubated at 30° C. for 30 min. Malachite green as a phosphate indicator was added, and the amount of free phosphate in the sample was determined using a SpectraMax® iD3 multi-mode microplate reader (Molecular Devices, USA). The calcineurin activity was normalized to a total protein concentration.

[2] = in the human body; cited from earlier work
[3] = cited from earlier work

In the case of `C=CC[C@@H]1/C=C(\C)C[C@H](C)C[C@H](OC)[C@H]2O[C@@](O)(C(=O)C(=O)N3CCCC[C@H]3C(=O)O[C@H](/C(C)=C/[C@@H]3CC[C@@H](O)[C@H](OC)C3)[C@H](C)[C@@H](O)CC1=O)[C@H](C)C[C@@H]2OC` [tacrolimus, Tacrolimus], the “regeneration of non-regenerative distal caudal fin tissue” value [1] is given as “the distal tissue regeneration was initiated”, the “calcineurin activity in tissue, normalized to total protein concentration” value (calcineurin) is given as “lower than that of the non-regenerative tissues” and the half-life [2] is given as 10.7 h. The “stability in aqueous solution” value [3] was “extremely-unstable in aqueous solution and can be rapidly degraded”.
